Reference: patent US11000033B2, “Ketone or oxime compound, and herbicide” (NISSAN CHEMICAL CORPORATION, priority 2014, dated 2021)

Legend:
Format in all cases: in vivo
[1] = system: Amaranthus retroflexus; assay: Test Example 4: herbicidal effect by soil treatment (symbol N); details: application herbicide amount 320 g/ha
Text: (§1) Herbicidal Effect Test by Soil Treatment
(§2) Sterilized diluvial soil was placed in a plastic box having a length of 21 cm, a width of 13 cm, and a depth of 7 cm. Each of the seeds of Digitaria ciliaris, Setaria viridis, Echinochloa crus-galli var. crus-galli, Avena fatua, Alopecurus myosuroides, Lolium multiflorum Lam., Apera spica-venti, Abutilon theophrasti, Amaranthus retroflexus, Chenopodium album, Stellaria media, Galium spurium, Veronica persica, corn, soybean, rice, wheat, beet, and rapeseed was sowed in a spot-like manner and was covered with the soil of a thickness of about 1.5 cm. Subsequently, the emulsion agent of the compound present invention prepared in accordance with Formulation Example 2 was diluted with water so as to be a predetermined herbicide amount and the diluted emulsion agent was uniformly applied to the surface of the soil with a small-size spray. The plastic box was placed in a greenhouse of 25° C. to 30° C. to grow plant. 3 weeks later from the herbicide application, the effect to each plant was investigated in accordance with the criteria of Test Example 1.

[2] = system: Echinochloa crus-galli var. crus-galli; assay: Test Example 4: herbicidal effect by soil treatment (symbol H); details: application herbicide amount 320 g/ha
Text: as §1, §2

[3] = system: Monochoria vaginalis; assay: Test Example 2: herbicidal activity, application during weed generation in submerged conditions (symbol C); details: Table 23; application herbicide amount 320 g/ha; grade 0-5 by criteria of Test Example 1
Method in brief: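 Alluvial soil in pots was flooded to a 4 cm water depth and sown with a mix of the three weed species, then grown in a greenhouse at 25° C. to 30° C. At the one- to two-leaf stage, an emulsifiable formulation diluted in water to a set dose was applied to the water surface. Effects were scored visually 3 weeks later.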

[4] = system: beet; assay: Test Example 4: effect on crop by soil treatment (symbol f); details: application herbicide amount 320 g/ha
Text: as §1
(§3) Sterilized diluvial soil was placed in a plastic box having a length of 21 cm, a width of 13 cm, and a depth of 7 cm. Each of the seeds of Digitaria ciliaris, Setaria viridis, Echinochloa crus-galli var. crus-galli, Avena fatua, Alopecurus myosuroides, Lolium multiflorum Lam., Apera spica-venti, Abutilon theophrasti, Amaranthus retroflexus, Chenopodium album, Stellaria media, Galium spurium, Veronica persica, corn, soybean, rice, wheat, beet, and rapeseed was sowed in a spot-like manner and was covered with the soil of a thickness of about 1.5 cm. […] The plastic box was placed in a greenhouse of 25° C. to 30° C. to grow plant.

[5] = system: Stellaria media; assay: Test Example 5: herbicidal effect by foliage application, plastic box (symbol P); details: 320 g/ha, 3 weeks after application
Method in brief: (§4)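 Visual herbicidal score, taken three weeks post-application, of seedlings sprayed on the foliage with water-diluted emulsion at a predetermined amount; plants were 14 days old, greenhouse-raised at 25° C. to 30° C.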

[6] = system: Avena fatua; assay: Test Example 5: herbicidal effect by foliage application, plastic box (symbol I); details: 320 g/ha, 3 weeks after application
Method in brief: as §4

[7] = system: Abutilon theophrasti; assay: Test Example 5: herbicidal effect by foliage application, plastic box (symbol M); details: 320 g/ha, 3 weeks after application
Method in brief: as §4

[8] = system: Digitaria ciliaris; assay: Test Example 5: herbicidal effect by foliage application, plastic box (symbol F); details: 320 g/ha, 3 weeks after application
Method in brief: as §4

[9] = system: rice plant; assay: Test Example 5: effect on crop by foliage application, plastic box (symbol b); details: 320 g/ha, 3 weeks after application
Method in brief: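 Seeds were sown in spots in sterilized diluvial soil held in a plastic box 21 cm × 13 cm × 7 cm deep, covered with about 1.5 cm of soil, and grown in a greenhouse at 25° C. to 30° C.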

[10] = system: Setaria viridis; assay: Test Example 5: herbicidal effect by foliage application, plastic box (symbol G); details: 320 g/ha, 3 weeks after application
Method in brief: as §4

[11] = system: rice; assay: Test Example 4: effect on crop by soil treatment (symbol b); details: application herbicide amount 320 g/ha
Text: as §1, §3

[12] = system: transplanted rice plant; assay: Test Example 1: effect on crop, application before weed generation in submerged conditions (symbol a); details: application herbicide amount 320 g/ha
Method in brief: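 Alluvial soil pots flooded to 4 cm water, sown with Echinochloa oryzacola, Scirpus juncoides and Monochoria vaginalis, then transplanted with 2.5 leaf stage rice seedlings; pre-emergence application. Greenhouse 25° C. to 30° C.; scored 0–5 by herbicidal ratio 3 weeks after application.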

SMILES	Herbicidal effect grade, N: Amaranthus retroflexus [1]	Herbicidal effect grade, H: Echinochloa crus-galli var. crus-galli [2]	Herbicidal effect grade, C: Monochoria vaginalis [3]	Effect on crop grade, f: beet [4]	P: Stellaria media, herbicidal effect grade [5]	I: Avena fatua, herbicidal effect grade [6]	M: Abutilon theophrasti, herbicidal effect grade [7]	F: Digitaria ciliaris, herbicidal effect grade [8]	b: directly sowed rice plant, effect on crop grade [9]	G: Setaria viridis, herbicidal effect grade [10]	Effect on crop grade, b: directly sowed rice plant [11]	a (transplanted rice plant) effect on crop grade [12]	N (Amaranthus retroflexus) herbicidal effect grade [1]	H (Echinochloa crus-galli var. crus-galli) herbicidal effect grade [2]	b (directly sowed rice plant) effect on crop grade [11]	Effect grade on crop, a: transplanted rice plant [12]
COCCON=C(C)CC1CC(O)=C(c2c(C)cc(Br)cc2C)C1=O (centres unmarked) [9-017]	0 (Herbicidal ratio of 5% or lower (almost no effect))	0 (Herbicidal ratio of 5% or lower (almost no effect))	0 (Herbicidal ratio of 5% or lower (almost no effect))	0 (Herbicidal ratio of 5% or lower (almost no effect))	0 (Herbicidal ratio of 5% or lower (almost no effect))	4 (Herbicidal ratio of 70% or higher and lower than 90%)	0 (Herbicidal ratio of 5% or lower (almost no effect))	4 (Herbicidal ratio of 70% or higher and lower than 90%)	5 (Herbicidal ratio of 90% or more (almost completely withered))	5 (Herbicidal ratio of 90% or more (almost completely withered))	1 (Herbicidal ratio of 5% or higher and lower than 20%)	4 (Herbicidal ratio of 70% or higher and lower than 90%)	–	–	–	–
COCCON=C(CC1CC(O)=C(c2c(C)cc(-n3cc(Cl)cn3)cc2C)C1=O)C1CC1 (centres unmarked) [9-020]	0 (Herbicidal ratio of 5% or lower (almost no effect))	0 (Herbicidal ratio of 5% or lower (almost no effect))	0 (Herbicidal ratio of 5% or lower (almost no effect))	0 (Herbicidal ratio of 5% or lower (almost no effect))	3 (Herbicidal ratio of 40% or higher and lower than 70%)	5 (Herbicidal ratio of 90% or more (almost completely withered))	4 (Herbicidal ratio of 70% or higher and lower than 90%)	5 (Herbicidal ratio of 90% or more (almost completely withered))	5 (Herbicidal ratio of 90% or more (almost completely withered))	5 (Herbicidal ratio of 90% or more (almost completely withered))	3 (Herbicidal ratio of 40% or higher and lower than 70%)	5 (Herbicidal ratio of 90% or more (almost completely withered))	–	–	–	–
C=CCOC1=C(c2c(C)cc(C)cc2C)C(=O)C(CC(C)=NOC)C1 (centres unmarked) [1-007]	–	–	0 (Herbicidal ratio of 5% or lower (almost no effect))	–	0 (Herbicidal ratio of 5% or lower (almost no effect))	3 (Herbicidal ratio of 40% or higher and lower than 70%)	0 (Herbicidal ratio of 5% or lower (almost no effect))	0 (Herbicidal ratio of 5% or lower (almost no effect))	0 (Herbicidal ratio of 5% or lower (almost no effect))	0 (Herbicidal ratio of 5% or lower (almost no effect))	–	–	0 (Herbicidal ratio of 5% or lower (almost no effect))	0 (Herbicidal ratio of 5% or lower (almost no effect))	0 (Herbicidal ratio of 5% or lower (almost no effect))	0 (Herbicidal ratio of 5% or lower (almost no effect))
